Experimental data taken from patent US20260347399A1, “BRAIN PENETRATING PEPTIDES AND METHODS OF USE” (priority 2022, published 2026).
“Also recorded” adds a separate entry of the source. Where two headings read alike, the source gives them in different places. Peptide text beside a SMILES is read from it. * marks the point of attachment. 5FAM = O=C1OC2(c3ccc(O)cc3Oc3cc(O)ccc32)c2ccc(C(=O)*)cc21; FAM = 5(6)-carboxyfluorescein; Ahx = NCCCCCC(=O)O

Columns and labels:
human LRP1 = human LRP1 (Homo sapiens, UniProt Q07954); assay: Surface plasmon resonance analysis; assay type: binding; conditions: SPR
Description: Whether Cerepep (SRRVISRAKLAAAL (SEQ ID NO:9)) binds to human LRP1 purified from placenta was tested using surface plasmon resonance analysis. […] Furthermore, binding of CP-neutravidin complex to LRP1 is inhibited by RAP and EDTA, as can be expected with LRP1 ligands.
To determine which amino acid positions are important for brain homing of SERVISRAKLAAAL (SEQ ID NO:9), a pool of peptide-phage clones was compiled, where every amino acid position was one-by-one changed to alanine (alanines were changed to leucines). The peptide-phages were mixed in equimolar ratio, the Cerepep phage was included as a positive control and insertless as a negative control. The phage mix was injected into mice and following a 1 h circulation the amount of different phage clones in the brain was determined using HTS. […] Surface plasmon resonance analysis with human LRP-1 immobilized on a BIAcore sensor chip was used to assess whether CP-neutravidin complex directly interacts with human LRP-1. Angiopep-2-neutravidin complex was used as a positive control (FIGS. 7A-7B).

ADHD / ASD subjects = conditions: cited from earlier work
[1] = test system: GBM and normal brain parenchyma; assay: Synthetic peptide homing in glioma-bearing mice (IHC); assay type: in vivo, mouse; conditions: synthetic peptide i.v., 1 h; WT-GBM and VEGFko GBM-bearing mice
Description: CVGTNCY (SEQ ID NO:2) peptide-phage or control phage were injected iv into mice, after one hour circulation animals were perfused with 20 ml PBS, organs were collected, weighed, and dropped to 1% NP40-LB solution. Organs were homogenized and titer of each tissue was determined. FAM-labeled peptides (2 mM of peptide in PBS) were injected intravenously and 3 hours later the animals were perfused with 20 mL of PBS. The organs were excised, snap-frozen in the vapor of liquid nitrogen, and stored at −80 °C. For confocal microscopy, the tissues were sectioned at 15 μm and stained with antibodies and DAPI.
Cryosections (15 μm) on Superfrost Plus slides were fixed in cold methanol, washed in PBS, treated with 3% hydrogen peroxide, and blocked in PBS containing 0.05% Tween-20, 5% BSA, and 5% goat serum (GE Healthcare, UK) for 1 h. The sections were immunostained with rabbit anti-fluorescein (cat #A889, Thermo Fisher Scientific, MA, USA) antibody overnight at +4 °C. […] Sections were imaged with Leica Aperio VERSA microscope slide scanner. Imaged were processed with Aperio Image Scope (v12.4.3.5008).
The synthetic CVGTNCY (SEQ ID NO:2) peptide or scrambled CVGTNCY (SEQ ID NO:2) homing in WT-GBM and VEGFko GBM-bearing mice was analyzed after i.v. injection and perfusion of the animals. Cryosections of glioma-bearing brains were stained with anti-FAM antibody and tyramide amplification kit to enhance the signal of the peptide.
To assess homing of CVG peptide in glioblastoma, CVGTNCY (SEQ ID NO:2) peptide-phage was injected iv into mice bearing either WT-GBM, VEGFko, U87MG or NCH421k GBM, and to mice without a tumor. At one hour time point mice were perfused, brains and control organs collected and titered. […] (FIGS. 17A-17B) Distribution of CVG peptide in GBM and brain parenchyma was also assessed. CVGTNCY (SEQ ID NO:2) peptide or its scrambled version (CVYTCNG; (SEQ ID NO: 68)) was injected iv into glioma bearing mice, after 1 hour circulation mice were perfused and tissues of interest snap-frozen in liquid nitrogen.

P3 human stem cells = assay: Inhibition of AgNP-Cerepep binding (FACS); assay type: cell-based; conditions: 4 °C, 1 h
Description: Briefly, P3 human stem cells were incubated with the indicated antibody (AB) or RAP (diluted in 20% of glycerol) at 4 °C for 1 h, after cells were exposed to AgNP-control or AgNP-Cerepep for 1 h at 4 °C, then the cells were analyzed by FACS.

ALS subjects = conditions: human, in vivo, cited from earlier work
[2] = test system: Huntington's disease subjects; conditions: human, in vivo; cited from earlier work
Neuro2A cells [3] = assay: Effect of endocytic inhibitors on CP-AgNP uptake (flow cytometry); assay type: cell-based, mouse; conditions: inhibitor 30 min at 37 °C: nystatin 50 μM, cytochalasin D 4 μM, chlorpromazine 30 μM
Description: […] The CP-AgNPs or control biotin-AgNPs were then added, and the cells were incubated at 37 °C for 1h, treated with an etching solution to remove accessible surface-bound AgNPs and subsequently washed with DPBS. The fluorescence of the labeled AgNPs was detected using the BD Accuri flow cytometer by monitoring the 555 nm channel FL2 and analyzed using FCS Express 7 software.
To study how treatment with endocytic inhibitors (nystatin, EIPA, cytochalasin D and chlorpromazine) affects the uptake of CP-AgNPs in Neuro2A cells, flow cytometry was used. Nystatin was used to block caveolae/lipid-mediated endocytosis, EIPA to block micropinocytosis, cytochalasin D to block actin polymerization and micropinocytosis and chlorpromazine to block clathrin-mediated endocytosis.

Neuro2A cells [4] = assay: In vitro FAM-peptide binding and uptake; assay type: cell-based, mouse; conditions: 30 μM, 1 h, 4 °C (binding) or 37 °C (uptake)
Description: To assess the binding and uptake of Cerepep peptide, Neuro2A were cultured in 24-well plates on polylysine coated glass coverslips until 80-90% confluency. FAM-Cerepep (FAM-Ahx-SRRVISRAKLAAAL-OH (SEQ ID NO:9)) or control FAM-RPAR (FAM-RPARPAR-OH (SEQ ID NO:74)) peptide with the final concentration of 30 µM was added to Neuro2A cells in growth media and incubated at 4 °C (to study the binding) or 37 °C (to study the uptake) for 1 h. The cells were washed 4 times with growth media and fixed in methanol. The samples were stained with anti-fluorescein antibody to enhance the FAM signal. The fixed cells were first blocked with PBST (PBS+0.05% Tween 20), 5% BSA, 5% goat serum at RT for 30 min, followed by incubation with rabbit anti-fluorescein IgG (cat. no. A889, Thermo Fisher Scientific, MA, USA) at 4 °C for O/N and Alexa 647 goat anti-rabbit IgG secondary antibody at RT for 1h. Nuclei were counterstained with DAPI at 1 μg/ml. The coverslips were mounted on glass slides with Fluoromount-G (Electron Microscopy Sciences, PA, USA), imaged using confocal microscopy (Olympus FV1200MPE, Tokyo, Japan) and analyzed using the FV10-ASW4.2 software.
The binding (at 4 °C) and uptake (at 37 °C) of synthetic FAM-Cerepep by Neuro2A cells was also studied, comparing it to a control FAM-RPAR peptide which has a similar charge.

mature neurons = assay: FAM-Cerepep colocalization with mature neurons; assay type: in vivo, mouse; conditions: 100 μl of 2 mM i.v., 2.5 h
Description: (§1) To assess the ability of FAM-conjugated to Cerepep to colocalize with mature neurons, 100 μl of 2 mM FAM-Cerepep or FAM-scramble (SARVISRAKLARAL (SEQ ID NO: 70)) was injected into the tail vein of mice n=3. After 2.5 h of circulation, the animals were anesthetized and perfused, the brains were collected, cryosected, fixed, permeabilized, and incubated with NeuN-mouse and anti-fluorescein-rabbit primary antibodies for 2 hours at room temperature. After washes, sections were incubated with Alexa Fluor […] anti-mouse and Alexa Fluor 647 anti-rabbit secondary antibodies, sections were washed and stained with DAPI. Pictures were taken under a confocal microscope in 4 different areas of the brain (cortex, cerebellum, hippocampus, brainstem).

astrocytes = assay: FAM-Cerepep colocalization with astrocytes; assay type: in vivo, mouse; conditions: 100 μl of 2 mM i.v., 2.5 h
Description: as §1, with “astrocytes,” for “mature neurons,”, “NO:70))” for “NO: 70))”, “GFAP-rat” for “NeuN-mouse”, “anti-rat” for “anti-mouse”

microglia = assay: FAM-Cerepep colocalization with microglia; assay type: in vivo, mouse; conditions: 100 μl of 2 mM i.v., 2.5 h
Description: To assess the ability of FAM-conjugated to Cerepep to colocalize with microglia, 100 μl of 2 mM FAM-Cerepep or FAM-scramble (SARVISRAKLARAL (SEQ ID NO: 70)) was injected into the tail vein of mice n=3. After 2.5 h of circulation, the animals were anesthetized and perfused, the brains were collected, cryosected, fixed, permeabilized, and incubated with CD11b-rat and anti-fluorescein-rabbit primary antibodies at room temperature for 2 hours. After washes, sections were incubated with Alexa Fluor […] anti-rat and Alexa Fluor 647 anti-rabbit secondary antibodies, sections were washed and stained with DAPI. Pictures were taken under a confocal microscope in 4 different areas of the brain (cortex, cerebellum, hippocampus, brainstem).

mouse brain = assay: FAM-Cerepep brain distribution; assay type: in vivo; conditions: 100 μl of 2 mM i.v., 2.5 h circulation
Description: To assess the ability of FAM-conjugated to Cerepep to traverse the BBB, 100 μl of 2 mM FAM-Cerepep or FAM-scrambled Control peptide (SARVISRAKLARAL (SEQ ID NO:70)) was injected into the tail vein of mice n=3. After 2.5 h of circulation, the animals were anesthetized and perfused, the brains were collected, cryosected, fixed, permeabilized, and incubated with CD31-rat and anti-fluorescein-rabbit primary antibodies at room temperature for 2 hours. After washes, sections were incubated with Alexa Fluor […] anti-rat and Alexa Fluor 647 anti-rabbit secondary antibodies, washed and stained with DAPI. Images were taken using a confocal microscope in 4 different areas of the brain (cortex, cerebellum, hippocampus, brainstem).
To quantify FAM-Cerepep in different regions of the brain, expts were set up to assess fluorescence intensity. Briefly, 100 μl of 2 mM FAM-Cerepep or FAM-scrambled peptide (SARVISRAKLARAL (SEQ ID NO:70)) was injected into the tail vein of mice n=3. […] Images were taken under a confocal microscope in 4 different areas of the brain (cortex, cerebellum, hippocampus, brainstem), and fluorescence intensity in each brain region was measured and quantified using ImageJ, as depicted in FIGS. 22A-22E.

Chain of human LRP1 (Q07954 20-4544): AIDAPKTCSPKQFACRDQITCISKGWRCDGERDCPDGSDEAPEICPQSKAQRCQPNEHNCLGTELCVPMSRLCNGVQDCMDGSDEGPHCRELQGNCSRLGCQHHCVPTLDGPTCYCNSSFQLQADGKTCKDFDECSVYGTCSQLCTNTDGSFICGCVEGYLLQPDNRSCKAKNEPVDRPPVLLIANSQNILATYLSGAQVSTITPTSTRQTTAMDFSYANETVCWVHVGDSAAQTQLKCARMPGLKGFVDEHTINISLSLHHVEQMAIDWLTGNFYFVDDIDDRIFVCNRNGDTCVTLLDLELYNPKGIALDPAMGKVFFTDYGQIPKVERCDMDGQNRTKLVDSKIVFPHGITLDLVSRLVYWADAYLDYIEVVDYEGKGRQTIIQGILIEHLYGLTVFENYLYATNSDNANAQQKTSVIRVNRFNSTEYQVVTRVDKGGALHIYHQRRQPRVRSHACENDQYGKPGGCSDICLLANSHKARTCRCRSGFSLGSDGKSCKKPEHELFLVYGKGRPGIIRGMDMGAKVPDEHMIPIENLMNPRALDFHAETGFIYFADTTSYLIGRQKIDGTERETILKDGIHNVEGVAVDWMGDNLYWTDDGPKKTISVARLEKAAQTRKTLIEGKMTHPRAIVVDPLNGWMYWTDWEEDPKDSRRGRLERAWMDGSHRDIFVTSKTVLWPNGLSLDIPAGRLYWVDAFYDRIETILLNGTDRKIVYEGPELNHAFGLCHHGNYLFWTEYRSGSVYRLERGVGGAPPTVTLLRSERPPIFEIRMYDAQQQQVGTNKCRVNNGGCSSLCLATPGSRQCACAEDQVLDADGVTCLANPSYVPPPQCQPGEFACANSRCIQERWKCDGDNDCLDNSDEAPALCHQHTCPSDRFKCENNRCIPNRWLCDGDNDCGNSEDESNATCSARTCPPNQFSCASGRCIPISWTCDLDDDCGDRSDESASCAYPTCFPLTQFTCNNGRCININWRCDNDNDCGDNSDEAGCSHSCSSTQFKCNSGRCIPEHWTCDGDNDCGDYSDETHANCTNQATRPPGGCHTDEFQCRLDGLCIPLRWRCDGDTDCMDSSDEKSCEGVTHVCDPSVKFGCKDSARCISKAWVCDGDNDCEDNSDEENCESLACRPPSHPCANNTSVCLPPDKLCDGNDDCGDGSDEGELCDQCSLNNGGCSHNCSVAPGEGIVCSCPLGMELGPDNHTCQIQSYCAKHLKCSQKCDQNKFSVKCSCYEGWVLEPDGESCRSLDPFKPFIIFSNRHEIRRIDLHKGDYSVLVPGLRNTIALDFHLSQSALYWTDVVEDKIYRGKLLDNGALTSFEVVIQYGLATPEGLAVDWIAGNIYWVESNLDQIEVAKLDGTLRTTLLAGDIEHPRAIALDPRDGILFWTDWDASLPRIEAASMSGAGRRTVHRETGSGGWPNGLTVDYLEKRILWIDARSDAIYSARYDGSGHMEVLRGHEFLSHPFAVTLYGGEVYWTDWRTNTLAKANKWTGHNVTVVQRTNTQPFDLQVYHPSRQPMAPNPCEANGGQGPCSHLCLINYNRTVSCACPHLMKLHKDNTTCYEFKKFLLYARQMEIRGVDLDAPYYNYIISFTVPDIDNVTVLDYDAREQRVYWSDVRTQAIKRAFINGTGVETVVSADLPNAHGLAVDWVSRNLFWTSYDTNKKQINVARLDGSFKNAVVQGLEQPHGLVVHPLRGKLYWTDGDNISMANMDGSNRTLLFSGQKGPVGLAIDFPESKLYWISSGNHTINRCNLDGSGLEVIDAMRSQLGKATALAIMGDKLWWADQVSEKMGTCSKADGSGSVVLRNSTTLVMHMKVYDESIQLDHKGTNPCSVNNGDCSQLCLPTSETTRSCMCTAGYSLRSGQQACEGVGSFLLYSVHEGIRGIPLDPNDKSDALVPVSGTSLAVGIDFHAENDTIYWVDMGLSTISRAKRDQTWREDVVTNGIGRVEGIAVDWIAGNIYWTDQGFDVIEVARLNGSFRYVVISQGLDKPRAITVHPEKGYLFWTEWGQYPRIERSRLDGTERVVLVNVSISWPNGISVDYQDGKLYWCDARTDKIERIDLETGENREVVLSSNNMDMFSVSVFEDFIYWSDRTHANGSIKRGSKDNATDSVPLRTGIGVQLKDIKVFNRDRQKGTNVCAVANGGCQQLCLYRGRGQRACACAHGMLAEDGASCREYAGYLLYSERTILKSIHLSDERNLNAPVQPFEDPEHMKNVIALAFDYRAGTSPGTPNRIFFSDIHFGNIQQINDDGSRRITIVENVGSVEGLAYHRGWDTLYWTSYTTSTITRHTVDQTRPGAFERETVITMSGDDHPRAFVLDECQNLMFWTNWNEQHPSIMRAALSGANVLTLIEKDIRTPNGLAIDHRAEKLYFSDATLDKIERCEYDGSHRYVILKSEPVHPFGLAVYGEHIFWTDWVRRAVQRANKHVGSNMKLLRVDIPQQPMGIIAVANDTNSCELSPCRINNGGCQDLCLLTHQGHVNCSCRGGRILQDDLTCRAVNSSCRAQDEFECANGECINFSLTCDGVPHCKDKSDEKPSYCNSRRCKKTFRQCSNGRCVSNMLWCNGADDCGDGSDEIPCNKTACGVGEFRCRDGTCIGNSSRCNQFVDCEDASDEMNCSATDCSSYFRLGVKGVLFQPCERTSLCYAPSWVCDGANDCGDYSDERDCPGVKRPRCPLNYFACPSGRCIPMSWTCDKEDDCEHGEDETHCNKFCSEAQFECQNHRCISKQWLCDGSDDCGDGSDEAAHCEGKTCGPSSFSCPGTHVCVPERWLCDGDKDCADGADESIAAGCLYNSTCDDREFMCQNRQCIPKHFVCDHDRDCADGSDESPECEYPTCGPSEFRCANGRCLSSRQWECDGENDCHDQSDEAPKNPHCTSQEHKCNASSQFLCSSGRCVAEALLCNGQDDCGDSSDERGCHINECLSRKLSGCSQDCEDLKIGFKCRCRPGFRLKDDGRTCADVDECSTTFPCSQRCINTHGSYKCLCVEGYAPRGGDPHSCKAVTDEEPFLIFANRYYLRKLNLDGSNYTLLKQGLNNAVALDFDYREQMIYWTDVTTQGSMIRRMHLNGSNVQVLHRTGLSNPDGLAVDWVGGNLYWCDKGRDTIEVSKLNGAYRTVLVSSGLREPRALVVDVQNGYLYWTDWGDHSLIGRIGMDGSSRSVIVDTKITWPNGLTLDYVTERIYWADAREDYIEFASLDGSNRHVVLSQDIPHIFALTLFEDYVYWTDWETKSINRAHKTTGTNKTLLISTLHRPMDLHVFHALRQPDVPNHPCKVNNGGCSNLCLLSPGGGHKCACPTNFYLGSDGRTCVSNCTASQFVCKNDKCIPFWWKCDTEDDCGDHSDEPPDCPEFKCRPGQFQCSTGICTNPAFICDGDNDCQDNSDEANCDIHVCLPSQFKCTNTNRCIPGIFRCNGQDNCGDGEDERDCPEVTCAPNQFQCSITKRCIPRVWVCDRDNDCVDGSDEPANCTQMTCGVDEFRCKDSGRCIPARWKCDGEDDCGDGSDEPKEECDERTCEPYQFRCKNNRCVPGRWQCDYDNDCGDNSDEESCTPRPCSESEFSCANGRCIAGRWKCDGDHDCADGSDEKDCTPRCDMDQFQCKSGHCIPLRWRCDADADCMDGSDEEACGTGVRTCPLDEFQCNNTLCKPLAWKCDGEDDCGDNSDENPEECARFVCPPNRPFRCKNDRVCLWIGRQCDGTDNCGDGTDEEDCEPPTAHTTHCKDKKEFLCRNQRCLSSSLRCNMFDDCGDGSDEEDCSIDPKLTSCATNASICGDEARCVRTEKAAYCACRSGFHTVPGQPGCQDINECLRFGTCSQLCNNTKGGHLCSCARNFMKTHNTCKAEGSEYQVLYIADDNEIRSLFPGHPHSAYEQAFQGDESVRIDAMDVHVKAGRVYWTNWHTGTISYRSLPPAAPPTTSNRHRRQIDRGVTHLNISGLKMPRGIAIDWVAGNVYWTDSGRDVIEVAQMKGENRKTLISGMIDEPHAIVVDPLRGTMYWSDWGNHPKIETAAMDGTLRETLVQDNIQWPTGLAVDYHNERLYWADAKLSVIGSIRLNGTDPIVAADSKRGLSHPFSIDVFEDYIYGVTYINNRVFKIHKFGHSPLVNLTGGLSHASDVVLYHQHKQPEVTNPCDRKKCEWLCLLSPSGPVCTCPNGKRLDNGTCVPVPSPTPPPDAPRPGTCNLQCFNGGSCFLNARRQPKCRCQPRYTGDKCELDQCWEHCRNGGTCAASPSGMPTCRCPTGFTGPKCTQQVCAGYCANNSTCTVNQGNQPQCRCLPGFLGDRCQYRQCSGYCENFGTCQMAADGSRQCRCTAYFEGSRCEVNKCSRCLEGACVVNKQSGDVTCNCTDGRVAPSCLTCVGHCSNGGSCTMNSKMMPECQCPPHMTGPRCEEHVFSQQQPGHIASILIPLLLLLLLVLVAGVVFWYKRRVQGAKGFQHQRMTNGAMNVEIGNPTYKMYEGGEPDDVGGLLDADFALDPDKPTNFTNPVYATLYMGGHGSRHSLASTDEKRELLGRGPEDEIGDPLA

With `O=C(O)CN(CCN(CC(=O)O)CC(=O)O)CC(=O)O` [EDTA] the “inhibition of CP-neutravidin binding to LRP1” value (human LRP1) was “inhibited”.
For `COC(=O)C(c1ccccc1)C1CCCCN1` (stereo not drawn) [methylphenidate], the “treatment of ADHD” value (ADHD / ASD subjects; ADHD) is given as “safe and effective” and the “treatment of hyperactivity in children with ASD” value (ADHD / ASD subjects; children with ASD) is given as “effectively treat hyperactivity in children with ASD”.
With `CC(C)[C@H](NC(=O)[C@H](CS)NC(=O)CCCCCNC(=O)c1ccc2c(c1)C(=O)OC21c2ccc(O)cc2Oc2cc(O)ccc21)C(=O)N[C@@H](Cc1ccc(O)cc1)C(=O)N[C@H](C(=O)N[C@@H](CS)C(=O)N[C@@H](CC(N)=O)C(=O)NCC(=O)O)[C@@H](C)O` [CVYTCNG, reference compound] ({5FAM-Ahx}-CVYTCNG-OH) the “detection in brain parenchyma” value [1] was “not detectable in the brain parenchyma; also recorded: no targeting to brain parenchyma” and the “detection/targeting in GBM” value [1] was “binding was detected in the GBM”.
In the case of “RAP: Receptor Associated Protein, inhibitor of several LDL-receptor proteins”, the “inhibition of CP-neutravidin binding to LRP1” value (human LRP1) is reported as “inhibited” and the “effect on AgNP-Cerepep binding to P3 cells” value (P3 human stem cells) is reported as “reduced”.
In the case of `Nc1nc2ccc(OC(F)(F)F)cc2s1` [riluzole, 2-amino-6-(trifluoromethoxy)benzothiazole], the “survival time in subjects with ALS” value (ALS subjects) is given as “borderline significance with respect to survival time” and the “survival time in subjects with ALS” value (ALS subjects; listed as Riluzole) is given as “improved survival time in subjects with ALS”.
For `NC12CC3CC(CC(C3)C1)C2` [amantadine], the “results in Huntington's disease” value [2] is listed as “preliminary positive results”.
For `CC1C=CC=CCCC=CC=CC=CC=CC(OC2OC(C)C(O)C(N)C2O)CC2OC(O)(CC(O)C(O)CCC(O)CC(O)CC(O)CC(=O)OC(C)C(C)C1O)CC(O)C2C(=O)O` (stereo not drawn) [Nystatin], the “inhibitory effect on the uptake of CP-AgNPs” value (Neuro2A cells [3]) was “did not have a statistically significant inhibitory effect”.
In the case of `CC(Cc1ccccc1)(NC(=O)CN)c1ccccc1` (stereo not drawn) [remacemide], the “results in Huntington's disease” value [2] is listed as “preliminary positive results”.
For “FAM-RPARPAR-OH ({FAM}-RPARPAR-OH) [reference compound]”, the “binding and uptake of FAM-peptide” value (Neuro2A cells [4]) was “only background binding”.
For “FAM-Ahx-SRRVISRAKLAAAL-OH ({FAM-Ahx}-SRRVISRAKLAAAL-OH) [FAM-Cerepep]”, the “association with neurons (NeuN)” value (mature neurons) was “could be detected associated with neurons in the brain tissues”, the “association with astrocytes (GFAP)” value (astrocytes) was “could be detected associated with astrocytes in the brain tissues” and the “association with microglia (CD11b)” value (microglia) was “could be detected associated with microglia in the brain tissues”. For the same molecule, the “binding and uptake of FAM-peptide” value (Neuro2A cells [4]) was “bound to and was taken up by Neuro2A cells” and the detection in brain (mouse brain) was “could be detected in the brain tissues”.
